In patent US12624018B1, “Inhibitors of RIPK2 and medical uses thereof” (Odyssey Therapeutics, Inc., priority 2022, dated 2026):

Target: T1, RIPK2 enzyme (Homo sapiens, UniProt O43353)
T1 construct: purchased Carna 09-128
Test: RIPK2 inhibition (ADP-Glo Kinase Assay)
Type: biochemical
Conditions: RIPK2 5 nM, ATP 150 μM, MBP substrate, read-out: RIPK2 IC50
Outline: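 Human RIPK2 (5 nM) preincubated with compound 30 min at room temperature in 50 mM HEPES pH 7.5, 10 mM MgCl2, 2 mM DTT, 1 mM EGTA, 0.01% Brij-35, 0.05% BSA; native swine MBP as substrate. ADP formed quantified by ADP-Glo luminescence; percent inhibition relative to DMSO and no-enzyme controls.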

T1 sequence (O43353 1-299 limits assumed): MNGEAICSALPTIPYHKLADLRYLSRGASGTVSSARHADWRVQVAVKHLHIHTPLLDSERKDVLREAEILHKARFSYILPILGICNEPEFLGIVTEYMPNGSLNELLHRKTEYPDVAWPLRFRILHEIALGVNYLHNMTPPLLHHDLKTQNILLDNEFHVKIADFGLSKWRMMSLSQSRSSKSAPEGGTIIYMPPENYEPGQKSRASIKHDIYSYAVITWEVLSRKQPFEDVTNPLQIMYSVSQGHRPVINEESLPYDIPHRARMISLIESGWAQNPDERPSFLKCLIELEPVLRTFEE

IC50 | SMILES
< 2.5 nM | Cc1cc(CC(=O)Nc2cnn(C(C)(C)C)c2)c(F)cc1Oc1ccnc2ccc(C(=O)N3CC(F)C3)cc12 [Compound 370, N-(1-(tert-butyl)-1H-pyrazol-4-yl)-2-(2-fluoro-4-((6-(3-fluoro-azetidine-1-carbonyl)quinolin-4-yl)oxy)-5-methyl-phenyl) acetamide]
< 2.5 nM | Cc1cc(CC(=O)Nc2cnn(C(C)(C)C)c2)c(F)cc1Oc1ccnc2ccc(C(=O)N3[C@H](C)COC[C@@H]3C)cc12 [Compound 451, N-(1-(tert-butyl)-1H-pyrazol-4-yl)-2-(4-((6-((3S,5R)-3,5-dimethylmorpholine-4-carbonyl)quinolin-4-yl)oxy)-2-fluoro-5-methylphenyl)acetamide]
< 2.5 nM | Cc1cc(CC(=O)Nc2cnn(C(C)(C)C)c2)ccc1Oc1ccnc2ccc(S(=O)(=O)C3CC(N)C3)cc12 (single isomer, unassigned) [Compound 283, 2-(4-((6-((-3-aminocyclobutyl)sulfonyl)quinolin-4-yl)oxy)-3-methylphenyl)-N-(1-(tert-butyl)-1H-pyrazol-4-yl)acetamide]
< 2.5 nM | Cc1cc(CC(=O)Nc2cnn(C(C)(C)C)c2)ccc1Oc1ccnc2ccc(OC3CCN(C4CC4)CC3)cc12 [Compound 95, N-(1-(tert-butyl)-1H-pyrazol-4-yl)-2-(4-((6-((1-cyclopropyl-piperidin-4-yl)oxy)quinolin-4-yl)oxy)-3-methylphenyl) acetamide]
< 2.5 nM | Cc1cc(CC(=O)Nc2cnn(C(C)(C)C)c2)ccc1Oc1ccnc2ccc(S(=O)(=O)C3CCN(C)CC3)cc12 [Compound 97, N-(1-(tert-butyl)-1H-pyrazol-4-yl)-2-(3-methyl-4-((6-((1-methylpiperidin-4-yl)sulfonyl)quinolin-4-yl)oxy)phenyl)acetamide]
2.8 nM | CC(C)(C)n1cc(NC(=O)Cc2ccc(Oc3ccnc4ccc(S(C)(=O)=O)cc34)c(C#N)c2)cn1 [Compound 432, N-(1-(tert-butyl)-1H-pyrazol-4-yl)-2-(3-cyano-4-((6-(methylsulfonyl)quinolin-4-yl)oxy)phenyl)acetamide]
< 2.5 nM | Cc1c(Oc2ccnc3ccc(S(=O)(=O)N4CCOCC4)cc23)ccc(CC(=O)Nc2cnn(C(C)(C)C)c2)c1F [Compound 274, N-(1-(tert-butyl)-1H-pyrazol-4-yl)-2-(2-fluoro-3-methyl-4-((6-(morpholinosulfonyl)quinolin-4-yl)oxy)phenyl)acetamide]
< 2.5 nM | Cc1cc(CC(=O)Nc2cnn(C(C)(C)C)c2)ccc1Oc1ccnc2ccc(OC3CCNC(C)C3)cc12 (racemic) [Compound 220, N-(1-(tert-butyl)-1H-pyrazol-4-yl)-2-(3-methyl-4-((6-((-2-methyl-piperidin-4-yl)oxy)quinolin-4-yl)oxy)phenyl) acetamide]
< 2.5 nM | CC(C)(C)n1cc(NC(=O)Cc2ccc(Oc3ncnc4ccc(OC5CCNCC5)cc34)c(F)c2F)cn1 [Compound 169, N-(1-(tert-butyl)-1H-pyrazol-4-yl)-2-(2,3-difluoro-4-((6-(piperidin-4-yloxy)quinazolin-4-yl)oxy)phenyl) acetamide]
3.9 nM | COc1ccc2ncnc(Oc3ccc(CC(=O)Nc4cnn(C(C)(C)C)c4)c(F)c3F)c2c1 [Compound 47, N-(1-(tert-butyl)-1H-pyrazol-4-yl)-2-(2,3-difluoro-4-((6-methoxy-quinazolin-4-yl)oxy)phenyl) acetamide]
< 2.5 nM | Cc1cc(CC(=O)Nc2cnn(C(C)(C)C)c2)ccc1Oc1ccnc2ccc(N(C)S(C)(=O)=O)cc12 [Compound 265, N-(1-(tert-butyl)-1H-pyrazol-4-yl)-2-(3-methyl-4-((6-(N-methylmethyl-sulfonamido)quinolin-4-yl)oxy)phenyl) acetamide]
< 2.5 nM | COc1cc2nccc(Oc3cc(F)c(CC(=O)Nc4cnn(C(C)(C)C)c4)cc3C)c2cc1S(C)(=O)=O [Compound 412, N-(1-(tert-butyl)-1H-pyrazol-4-yl)-2-(2-fluoro-4-((7-methoxy-6-(methylsulfonyl)quinolin-4-yl)oxy)-5-methylphenyl) acetamide]
